Earlier results in patent US8470873B2, “Vitamin E succinate stabilized pharmaceutical compositions, methods for the preparation and the use thereof” (Mast Therapeutics, Inc., priority 2006, dated 2013).

Key:
[1] = hydrolysis

Compound	stability in the presence of water [1]	solubility in water
CC(=O)O[C@@]12CO[C@@H]1C[C@H](O)[C@@]1(C)C(=O)[C@H](O)C3=C(C)[C@@H](OC(=O)[C@H](O)[C@@H](NC(=O)OC(C)(C)C)c4ccccc4)C[C@@](O)([C@@H](OC(=O)c4ccccc4)[C@H]21)C3(C)C [Docetaxel, (2R,3S)-N-carboxy-3-phenylisoserine,N-tert-butyl ester, 13-ester with 5β-20-epoxy-1,2α-,4,7β,10β,13α-hexahydroxytax-11-en-9-one 4-acetate 2-benzoate, trihydrate]	very unstable	
CC(=O)O[C@H]1C(=O)[C@@]2(C)[C@H]([C@H](OC(=O)c3ccccc3)[C@]3(O)C[C@H](OC(=O)[C@H](O)[C@@H](NC(=O)c4ccccc4)c4ccccc4)C(C)=C1C3(C)C)[C@]1(OC(C)=O)CO[C@@H]1C[C@@H]2O [paclitaxel]		insoluble
